Data: patent US8110654B2, “T cell epitope peptides of ovarian cancer anti-idiotypic antibody 6B11 and use thereof” (Peking University People;s Hospital, priority 2006, dated 2012)

Tests used:
[1] = test system: CD4 T cells derived from 6B11-CTLs; test: Intracellular cytokines of CD4 T cells by flow cytometry; type: cell-based, human; details: 6B11-CTLs co-incubated with peptide-loaded DCs
Procedure: The anti-idiotype antibody 6B11-CTLs were co-incubated respectively with DCs loading VH CDR3 peptides and DCs without loading. The production of intracellular cytokines in CD4 T cells derived from the anti-idiotype antibody 6B11-CTLs was detected by flow cytometry.

[2] = molecular target: HLA-A2 (Homo sapiens, UniProt P04439, D140Y/D185E/D98H/E176V/E277Q/G131W/G231S/I119V/I121R/I166T/I218V/L300P/L318F/N151K/N90K/P208A/P217A/Q86G/Q94H/R138H/R169H/T345S); test: T2 cell binding assay (HLA class I expression on T2 cells, confocal microscopy); type: cell-based; on T2 binding: key: +++: high binding capacity; ++: moderate binding capacity; +: low binding capacity
Procedure: The peptides obtained by […] method and the VH CDR1 and VL CDR2 region peptides were subject to T2 cell binding assay. T2 cells were co-incubated with each peptides in different concentrations (0.3 μg/ml, 3 μg/ml and 30 μg/ml) for 24 hours and then co-incubated with anti-human MHC class I antibodies. The expression profile of HLA class I molecules on the surface of T2 cells was analyzed by confocal microscopy. […] They were synthesized together with the CDR peptides of the anti-idiotype antibody for screening CTL epitope peptides.

Sequence | IFN-γ secretion by CD4 T cells [1] | IL-4 level in CD4 T cells [1] | binding capacity in T2 cell binding assay (in words) ([2]; T2 cells co-incubated with peptide 24 hours) | T2 binding ([2]; T2 cells co-incubated with peptide (0.3, 3, 30 μg/ml) 24 hours, HLA class I surface expression)
IALITTKIAWYFDV (VH CDR3 region peptide) [VH CDR3 peptide] | high level | low level | – | –
SQSTHFPYT (VL CDR3 region peptide) | – | – | moderate binding capacity | ++
